{"source": "patent US5821118A", "about": "“Genes for the subunits of human farnesyl-protein transferase” (Merck & Co., Inc., priority 1995, dated 1998)", "key": {"human FPTase": {"molecular_target": "T1, human FPTase (Homo sapiens, UniProt P49354+P49356)", "T1 construct": "codons for Glutamic acid-Glutamic acid-Phenylalanine-stop were placed after the last codon for the β subunit; made in house; host or cells: E. coli DH5a", "assay": "Assay of compounds for FPTase inhibitory activity, once purified human FPTase", "type": "biochemical"}, "Bovine brain FTase": {"molecular_target": "T2, Bovine brain FTase (Bos taurus, UniProt P29702+P49355)", "T2 construct": "an assay employing bovine brain FPTase; from tissue; host or cells: bovine brain", "assay": "Assay of compounds for FPTase inhibitory activity, bovine brain FPTase", "type": "biochemical", "description": "The purified, recombinantly expressed, mammalian FPTase is employed in an assay to determine the inhibitory activity against FPTase mediated farnesylation of Ras by various pharmaceutical compounds. […] The purified mammalian FPTase is then added to the assay mixture and the assay mixture is incubated for a period of time such as 10-30 minutes at 30° C. The assay mixture is then quenched and the Ras protein is separated from free FPP by techniques well known in the art. […] This value may be compared to the relative value of the amount of Ras farnesylated in the absence of the pharmaceutical agent and to the relative value of the amount of Ras farnesylated in the presence of other pharmaceutical agents.\n[^3 H]Farnesyl diphosphate (FPP) (20 Ci/mmol) was purchased from New England Nuclear. In general, inhibitory activity assays were carried out at 30° C. A typical assay reaction contained (in a final volume of 50 μL): [^3 H]farnesyl diphosphate, Ras protein (3.5 μM), 50 mM HEPES, pH 7.5, 5 mM MgCl2, 1 mM dithiothreitol, and the compound to be assayed. After thermally preequilibrating the assay mixture, the reaction was initiated by the addition of the purified mammalian FPTase and the reaction was stopped at timed intervals by the addition of 1M HCl in ethanol (1 mL). The quenched reactions were allowed to stand for 15 minutes. After adding 2 mL of 100% ethanol, the mixtures were vacuum filtered through Whatman GF/C filters. Filters were washed four times with 2 mL aliquots of 100% ethanol, mixed with scintillation fluid (10 mL) and then counted in a Beckmann LS3801 scintillation counter."}, "[1]": {"conditions": "Human FTase, Ras protein 3.5 μM, pH 7.5, 30° C, * = alternative substrates (CVIM, CVIL, FPP)"}, "[2]": {"conditions": "Bovine brain FTase, Ras protein 3.5 μM, pH 7.5, 30° C, * = alternative substrates (CVIM, CVIL, FPP)"}}, "note": "Read-outs that look alike come from different tables or passages of the source."}
{"compound": "cysteinylisolleucinyl-phenylalaninyl-methionine [CIFM]", "values": [{"measurement": "IC50", "setting": "human FPTase; [1]", "result": 0.017, "unit": "µM"}, {"measurement": "IC50", "setting": "Bovine brain FTase; [2]", "result": 0.01, "unit": "µM"}]}
{"compound": "CC(C)=CCC/C(C)=C/CC/C(C)=C/CO[P@@](=O)(O)OP(=O)(O)O", "note": "(stereo in doubt) [FPP, farnesyl diphosphate]", "values": [{"measurement": "IC50", "setting": "human FPTase", "result": 0.25, "unit": "µM"}, {"measurement": "IC50", "setting": "Bovine brain FTase", "result": 0.2, "unit": "µM"}]}
{"compound": "CC(C)=CCC/C(C)=C/CC/C(C)=C/CC/C(C)=C/COP(=O)(O)OP(=O)(O)O", "note": "[GGPP, geranylgeranyl-diphosphate]", "values": [{"measurement": "IC50", "setting": "human FPTase", "result": 0.24, "unit": "µM"}, {"measurement": "IC50", "setting": "Bovine brain FTase", "result": 0.2, "unit": "µM"}]}
{"compound": "CC(C)=CCC/C(C)=C/CC/C(C)=C/C(O)P(=O)(O)O", "note": "(racemic) [Compound A, (R,S)[1hydroxy-(E,E)-3,7,11-trimethyl-2,6,10-dodeca-trienyl]phosphonic acid]", "values": [{"measurement": "IC50", "setting": "human FPTase", "result": 0.018, "unit": "µM"}, {"measurement": "IC50", "setting": "Bovine brain FTase", "result": 0.02, "unit": "µM"}]}
{"compound": "cysteinylvalinyl-isolleucinyl-leucine (CVIL)", "values": [{"measurement": "IC50", "setting": "human FPTase; [1]", "result": 6.2, "unit": "µM"}, {"measurement": "IC50", "setting": "Bovine brain FTase; [2]", "result": 20, "unit": "µM"}]}
